Patent US10544140B2, “Pharmaceutical composition containing, as active ingredient, 7-azaindolin-2-one derivative or pharmaceutically acceptable salt thereof” (LG CHEM, LTD., priority 2015, dated 2020)
pIC50: −log10 of the molar value.

What was measured:
[1] = tested on: U937 (myeloid leukemia); assay: Cytotoxicity test by MTT assay, U937; assay type: cell-based, human; settings: Homo sapiens, U-937; U937, 48 h
Protocol: (§1) A cytotoxicity test was measured by MTT assay. Each cell line was cultured in a 96-well plate at a density of 1×10^4 cells/well. After 24 hours, the culture medium containing 1% FBS (fetal bovine serum) was treated and reacted with compounds or solutions of compounds for 48 hours. MTT (3-(4,5-dimethylthiazol-2-yl)-2,5-diphenyltetrazolium bromide) solution (5 mg/mL) was added to each well and reacted for 4 hours in an incubator. […] After reacting in an incubator for 30 minutes, the formation of formazan was quantified using a microplate reader at an absorbance of 540 nm. […] The human cancer cell lines used herein are MCF-7 (breast cancer), MDA-MB-231 (breast cancer), HT-29 (colon cancer), DU145 (prostate cancer), U937 (myeloid leukemia), A549 (lung cancer), PANC-1 (pancreatic cancer) and MIA PaCa-2 (pancreatic cancer).

[2] = tested on: A549 (lung cancer); assay: Cytotoxicity test by MTT assay, A549; assay type: cell-based, human; settings: for pIC50: Homo sapiens, A549, 48 h
Protocol: as §1

[3] = tested on: PANC-1 (human pancreatic cancer cell line); assay: Cytotoxicity test by MTT assay, PANC-1; assay type: cell-based; settings: for cytotoxicity at 30 µM / pIC50: Homo sapiens; for cytotoxicity at 30 µM: PANC-1, 30 μM, 48 h, read-out: Cell viability (% inhibition); for pIC50: PANC-1, 48 h
Protocol: (§2) A cytotoxicity test was measured by MTT assay. Each cell line was cultured in a 96-well plate at a density of 1×10^4 cells/well. […] MTT (3-(4,5-dimethylthiazol-2-yl)-2,5-diphenyltetrazolium bromide) solution (5 mg/mL) was added to each well and reacted for 4 hours in an incubator. […] After reacting in an incubator for 30 minutes, the formation of formazan was quantified using a microplate reader at an absorbance of 540 nm. […] At this time, sunitinib was used as a control group. […] The human cancer cell lines used herein are MCF-7 (breast cancer), MDA-MB-231 (breast cancer), HT-29 (colon cancer), DU145 (prostate cancer), U937 (myeloid leukemia), A549 (lung cancer), PANC-1 (pancreatic cancer) and MIA PaCa-2 (pancreatic cancer).

[4] = tested on: MDA-MB-231 (breast cancer); assay: Cytotoxicity test by MTT assay, MDA-MB-231; assay type: cell-based, human; settings: for pIC50: Homo sapiens, MBA-MB-231, 48 h
Protocol: as §1

[5] = tested on: MCF-7 (human breast cancer cell line); assay: Cytotoxicity test by MTT assay, MCF-7; assay type: cell-based; settings: for cytotoxicity at 30 µM / pIC50: Homo sapiens, MCF7; for cytotoxicity at 30 µM: MCF-7, 30 μM, 48 h, read-out: Cell viability (% inhibition); for pIC50: MCF-7, 48 h; for cytotoxicity compared with the reference drug sunitinib: MCF-7
Protocol: as §2

[6] = tested on: HT-29 (colon cancer); assay: Cytotoxicity test by MTT assay, HT-29; assay type: cell-based, human; settings: for pIC50: Homo sapiens, HT-29, 48 h
Protocol: as §1

[7] = Cytotoxicity test by MTT assay, CHO-K1 normal cell line; assay type: cell-based; settings: Chinese hamster, CHO-K1 cells (normal cell line)
Protocol: (§3) A cytotoxicity test was measured by MTT assay. Each cell line was cultured in a 96-well plate at a density of 1×10^4 cells/well. After 24 hours, the culture medium containing 1% FBS (fetal bovine serum) was treated and reacted with compounds or solutions of compounds for 48 hours. MTT (3-(4,5-dimethylthiazol-2-yl)-2,5-diphenyltetrazolium bromide) solution (5 mg/mL) was added to each well and reacted for 4 hours in an incubator. […] After reacting in an incubator for 30 minutes, the formation of formazan was quantified using a microplate reader at an absorbance of 540 nm.

[8] = tested on: DU145 (prostate cancer); assay: Cytotoxicity test by MTT assay, DU145; assay type: cell-based, human; settings: DU-145; for pIC50: Homo sapiens, DU145, 48 h
Protocol: as §1

[9] = Cytotoxicity test by MTT assay, HEK293 normal cell line; assay type: cell-based; settings: human, HEK293 cells (normal cell line)
Protocol: as §3

[10] = tested on: MIA PaCa-2 (pancreatic cancer); assay: Cytotoxicity test by MTT assay, MIA PaCa-2; assay type: cell-based, human; settings: for pIC50: Homo sapiens, MIA PaCa-2, 48 h
Protocol: as §1

CCCCC/C=C1\C(=O)Nc2nc(C)c(O)c(C)c21 [Compound I-01, (Z)-3-Hexylidene-5-hydroxy-4,6-dimethyl-1H-pyrrolo[2,3-b]pyridin-2(3H)-one]
pIC50 [1]: 4.94 | pIC50 [2]: 5.12 | cytotoxicity at 30 µM [3]: 77.4% | pIC50 [4]: 4.90 | cytotoxicity at 30 µM [5]: 76.9% | pIC50 [5]: 4.86 | pIC50 [6]: 4.89 | IC50 at 48 h [7]: 20.9 µM | pIC50 [8]: 4.96 | IC50 at 48 h [9]: > 90 µM

COc1ccc(OC)c(/C=C2\C(=O)Nc3nc(C)c(O)c(C)c32)c1 [Compound I-15, (Z)-3-(2,5-Dimethoxybenzylidene)-5-hydroxy-4,6-dimethyl-1H-pyrrolo[2,3-b]pyridin-2(3H)-one]
pIC50 [1]: 4.48 | pIC50 [2]: 4.32 | pIC50 [3]: 4.71 | cytotoxicity at 30 µM [3]: 69.2% | pIC50 [4]: 4.64 | cytotoxicity at 30 µM [5]: 67.5% | pIC50 [5]: 4.68 | pIC50 [6]: 4.78 | IC50 at 48 h [7]: 47.5 µM | cytotoxicity compared with the reference drug sunitinib [8]: greater than or equal to that of the reference drug sunitinib | pIC50 [8]: 5.26 | IC50 at 48 h [9]: 37.8 µM

COc1ccc(Br)cc1/C=C1\C(=O)Nc2nc(C)c(O)c(C)c21 [Compound I-17, (Z)-3-(5-bromo-2-methoxybenzylidene)-5-hydroxy-4,6-dimethyl-1H-pyrrolo[2,3-b]pyridin-2(3H)-one]
pIC50 [1]: 4.90 | pIC50 [2]: 5.00 | cytotoxicity at 30 µM [3]: 71.7% | pIC50 [4]: 4.98 | cytotoxicity at 30 µM [5]: 74.7% | pIC50 [5]: 4.96 | pIC50 [6]: 4.60 | IC50 at 48 h [7]: 30.1 µM | cytotoxicity compared with the reference drug sunitinib [8]: greater than or equal to that of the reference drug sunitinib | pIC50 [8]: 5.34 | IC50 at 48 h [9]: 33 µM

Cc1nc2c(c(C)c1O)/C(=C/c1ccc(N(C)C)cc1)C(=O)N2 [Compound I-18, (Z)-3-(4-(Dimethylamino)benzylidene)-5-hydroxy-4,6-dimethyl-1H-pyrrolo[2,3-b]pyridin-2(3H)-one]
pIC50 [2]: 4.88 | pIC50 [3]: 4.86 | cytotoxicity at 30 µM [3]: 66.3% | cytotoxicity compared with the reference drug sunitinib ([3]; PANC-1): greater than or equal to that of the reference drug sunitinib | pIC50 [4]: 4.92 | pIC50 [10]: 4.94 | cytotoxicity at 30 µM [5]: 62.5% | pIC50 [5]: 4.88 | pIC50 [6]: 4.44 | IC50 at 48 h [7]: > 90 µM | cytotoxicity compared with the reference drug sunitinib [8]: greater than or equal to that of the reference drug sunitinib | pIC50 [8]: 5.94 | IC50 at 48 h [9]: > 90 µM

Cc1nc2c(c(C)c1O)/C(=C/C(c1ccccc1)c1ccccc1)C(=O)N2 [Compound I-19, (Z)-3-(2,2-Diphenylethylidene)-5-hydroxy-4,6-dimethyl-1H-pyrrolo[2,3-b]pyridin-2(3H)-one]
pIC50 [1]: 4.78 | pIC50 [2]: 4.50 | pIC50 [3]: 5.13 | cytotoxicity at 30 µM [3]: 81.4% | cytotoxicity compared with the reference drug sunitinib ([3]; PANC-1): greater than or equal to that of the reference drug sunitinib | pIC50 [4]: 4.64 | cytotoxicity at 30 µM [5]: 78.1% | pIC50 [5]: 5.20 | cytotoxicity compared with the reference drug sunitinib [5]: greater than or equal to that of the reference drug sunitinib | pIC50 [6]: 4.94 | IC50 at 48 h [7]: 30.1 µM | pIC50 [8]: 5.06 | IC50 at 48 h [9]: 26.2 µM

Cc1nc2c(c(C)c1O)/C(=C/c1cccnc1)C(=O)N2 [Compound I-22, (Z)-5-Hydroxy-4,6-dimethyl-3-(pyridin-3-ylmethylene)-1H-pyrrolo[2,3-b]pyridin-2(3H)-one]
pIC50 [1]: 4.84 | pIC50 [2]: 4.86 | cytotoxicity at 30 µM [3]: 72.7% | pIC50 [4]: 5.02 | cytotoxicity at 30 µM [5]: 78% | pIC50 [5]: 4.76 | pIC50 [6]: 4.70 | IC50 at 48 h [7]: 78.5 µM | cytotoxicity compared with the reference drug sunitinib [8]: greater than or equal to that of the reference drug sunitinib | pIC50 [8]: 5.93 | IC50 at 48 h [9]: > 90 µM

Cc1nc2c(c(C)c1O)/C(=C/c1ccncc1)C(=O)N2 [Compound I-23, (Z)-5-Hydroxy-4,6-dimethyl-3-(pyridin-4-ylmethylene)-1H-pyrrolo[2,3-b]pyridin-2(3H)-one]
pIC50 [1]: 4.46 | pIC50 [2]: 4.52 | pIC50 [3]: 4.72 | cytotoxicity at 30 µM [3]: 65.4% | cytotoxicity at 30 µM [5]: 63.2% | pIC50 [5]: 4.72 | pIC50 [6]: 4.52 | IC50 at 48 h [7]: 57 µM | pIC50 [8]: 4.52 | IC50 at 48 h [9]: 45.7 µM

Cc1nc2c(c(C)c1O)/C(=C/c1ccoc1)C(=O)N2 [Compound I-28, (Z)-3-(Furan-3-ylmethylene)-5-hydroxy-4,6-dimethyl-1H-pyrrolo[2,3-b]pyridin-2(3H)-one]
pIC50 [1]: 4.50 | cytotoxicity at 30 µM [3]: 26.1% | cytotoxicity at 30 µM [5]: 66.3% | pIC50 [5]: 4.64 | IC50 at 48 h [7]: > 90 µM | pIC50 [8]: 4.64 | IC50 at 48 h [9]: 19.9 µM

CCNCCNC(=O)c1c(C)[nH]c(/C=C2\C(=O)Nc3nc(C)c(O)c(C)c32)c1C [Compound I-40, (Z)—N-(2-(Ethylamino)ethyl)-5-((5-hydroxy-4,6-dimethyl-2-oxo-1H-pyrrolo[2,3-b]pyridin-3(2H)-ylidene)methyl)-2,4-dimethyl-1H-pyrrole-3-carboxamide]
cytotoxicity compared with the reference drug sunitinib ([2]; A-549): greater than or equal to that of the reference drug sunitinib | pIC50 [2]: 5.83 | pIC50 [3]: 5.99 | cytotoxicity compared with the reference drug sunitinib ([3]; PANC-1): greater than or equal to that of the reference drug sunitinib | cytotoxicity compared with the reference drug sunitinib [4]: greater than or equal to that of the reference drug sunitinib | pIC50 [4]: 5.83 | pIC50 [10]: 5.80 | cytotoxicity compared with the reference drug sunitinib ([10]; MIA PaCa-2): greater than or equal to that of the reference drug sunitinib | pIC50 [5]: 5.88 | cytotoxicity compared with the reference drug sunitinib [5]: greater than or equal to that of the reference drug sunitinib | cytotoxicity compared with the reference drug sunitinib ([6]; HT-29): greater than or equal to that of the reference drug sunitinib | pIC50 [6]: 5.84 | IC50 at 48 h [7]: 40.7 µM | cytotoxicity compared with the reference drug sunitinib [8]: greater than or equal to that of the reference drug sunitinib | pIC50 [8]: 6.59 | IC50 at 48 h [9]: 19.1 µM

Cc1nc2c(c(C)c1O)/C(=C/c1[nH]c(C)c(C(=O)N3CCCC3)c1C)C(=O)N2 [Compound I-44, (Z)-3-((3,5-Dimethyl-4-(pyrrolidine-1-carbonyl)-1H-pyrrol-2-yl)methylene)-5-hydroxy-4,6-dimethyl-1H-pyrrolo[2,3-b]pyridin-2(3H)-one]
pIC50 [1]: 4.28 | pIC50 [2]: 4.30 | cytotoxicity at 30 µM [3]: 31.8% | pIC50 [4]: 4.36 | cytotoxicity at 30 µM [5]: 47.7% | pIC50 [5]: 4.46 | pIC50 [6]: 4.36 | IC50 at 48 h [7]: 58.9 µM | IC50 at 48 h [9]: > 90 µM

Cc1nc2c(c(C)c1O)/C(=C/c1[nH]c(C)c(C(=O)N3CCN(C)CC3)c1C)C(=O)N2 [Compound I-45, (Z)-3-((3,5-Dimethyl-4-(4-methylpiperazine-1-carbonyl)-1H-pyrrol-2-yl)methylene)-5-hydroxy-4,6-dimethyl-1H-pyrrolo[2,3-b]pyridin-2(3H)-one]
pIC50 [1]: 4.58 | pIC50 [2]: 4.58 | cytotoxicity at 30 µM [3]: 48.7% | pIC50 [4]: 4.79 | cytotoxicity at 30 µM [5]: 60.7% | pIC50 [5]: 4.99 | pIC50 [6]: 4.44 | IC50 at 48 h [7]: 23.4 µM | IC50 at 48 h [9]: 38 µM

Nc1ccn([C@@H]2O[C@H](CO)[C@@H](O)C2(F)F)c(=O)n1 [Gemcitabine, reference compound]
pIC50 [3]: < 3.00 | resistance of the cell line to the drug ([3]; PANC-1): resistance to gemcitabine | pIC50 [10]: < 3.00 | resistance of the cell line to the drug ([10]; MIA PaCa-2): resistance to gemcitabine

CCN(CC)CCNC(=O)c1c(C)[nH]c(/C=C2\C(=O)Nc3ccc(F)cc32)c1C [Sunitinib, sunitinib, reference compound]
pIC50 [1]: 5.16 | pIC50 [2]: 5.16 | pIC50 [4]: 5.22 | pIC50 [10]: 5.07 | pIC50 [6]: 5.31 | pIC50 [8]: 5.23 | IC50 at 48 h [9]: 7.3 µM
